US8916557B2, “Substituted 4-Aryl-N-phenyl-1,3,5-triazin-2-amines” (Bayer Intellectual Property GmbH, priority 2011, dated 2014)

How the values were obtained:
[1] = system: HeLa human cervical tumour cells; test: Proliferation assay (crystal violet), HeLa; format: cell-based; settings: read-out: Inhibition of HeLa cell proliferation
CDK2/CycE = target: T1, CDK2/CycE (Homo sapiens, UniProt P24941); test: CDK2/CycE kinase assay (TR-FRET); format: biochemical; settings: Method 2, 10 μM ATP
T1 construct: GST; purchased ProQinase GmbH (Freiburg, Germany); host or cells: insect cells (Sf9)
Description: 2. CDK2/CycE Kinase Assay:
CDK2/CycE-inhibitory activity of compounds of the present invention was quantified employing the CDK2/CycE TR-FRET assay as described in the following paragraphs:
Recombinant fusion proteins of GST and human CDK2 and of GST and human CycE, expressed in insect cells (Sf9) and purified by Glutathion-Sepharose affinity chromatography, were purchased from ProQinase GmbH (Freiburg, Germany). As substrate for the kinase reaction biotinylated peptide biotin-Ttds-[…] (C-terminus in amid form) was used which can be purchased e.g. form the company JERINI Peptide Technologies (Berlin, Germany).
For the assay 50 nl of a 100fold concentrated solution of the test compound in DMSO was pipetted into a black low volume 384well microtiter plate (Greiner Bio-One, Frickenhausen, Germany), 2 μl of a solution of CDK2/CycE in aqueous assay buffer [50 mM Tris/HCl pH 8.0, 10 mM MgCl2, 1.0 mM dithiothreitol, 0.1 mM sodium ortho-vanadate, 0.01% (v/v) Nonidet-P40 (Sigma)] were added and the mixture was incubated for […] at 22° C. to allow pre-binding of the test compounds to the enzyme before the start of the kinase reaction. Then the kinase reaction was started by the addition of 3 μl of a solution of adenosine-tri-phosphate (ATP, 16.7 μM=>final conc. in the 5 it assay volume is 10 μM) and substrate (1.25 μM=>final conc. in the 5 it assay volume is 0.75 μM) in assay buffer and the resulting mixture was incubated for a reaction time of […] at 22° C. The concentration of CDK2/CycE was adjusted depending of the activity of the enzyme lot and was chosen appropriate to have the assay in the linear range, typical concentrations were in the range of 130 ng/ml. The reaction was stopped by the addition of 5 it of a solution of TR-FRET detection reagents (0.2 μM streptavidine-XL665 [Cisbio Bioassays, Codolet, France] and 1 nM anti-RB(pSer807/pSer811)-antibody from BD Pharmingen [#558389] and 1.2 nM LANCE EU-W1024 labeled anti-mouse IgG antibody [Perkin-Elmer, product no. AD0077]) in an aqueous EDTA-solution (100 mM EDTA, 0.2% (w/v) bovine serum albumin in 100 mM HEPES/NaOH pH 7.0).
(§1) The resulting mixture was incubated 1 h at 22° C. to allow the formation of complex between the phosphorylated biotinylated peptide and the detection reagents. Subsequently the amount of phosphorylated substrate was evaluated by measurement of the resonance energy transfer from the Eu-chelate to the streptavidine-XL. Therefore, the fluorescence emissions at 620 nm and 665 nm after excitation at 350 nm was measured in a TR-FRET reader, e.g. a Rubystar (BMG Labtechnologies, Offenburg, Germany) or a Viewlux (Perkin-Elmer). The ratio of the emissions at 665 nm and at 622 nm was taken as the measure for the amount of phosphorylated substrate.

CDK9/CycT1 = target: T2, CDK9/CycT1 (Homo sapiens, UniProt P50750); test: CDK9/CycT1 kinase assay (TR-FRET); format: biochemical; settings: Method 1, 10 μM ATP
T2 construct: Recombinant full-length His-tagged human CDK9 and CycT1; His; purchased Invitrogen PV4131; host or cells: insect cells
T2 sequence (P50750 whole entry): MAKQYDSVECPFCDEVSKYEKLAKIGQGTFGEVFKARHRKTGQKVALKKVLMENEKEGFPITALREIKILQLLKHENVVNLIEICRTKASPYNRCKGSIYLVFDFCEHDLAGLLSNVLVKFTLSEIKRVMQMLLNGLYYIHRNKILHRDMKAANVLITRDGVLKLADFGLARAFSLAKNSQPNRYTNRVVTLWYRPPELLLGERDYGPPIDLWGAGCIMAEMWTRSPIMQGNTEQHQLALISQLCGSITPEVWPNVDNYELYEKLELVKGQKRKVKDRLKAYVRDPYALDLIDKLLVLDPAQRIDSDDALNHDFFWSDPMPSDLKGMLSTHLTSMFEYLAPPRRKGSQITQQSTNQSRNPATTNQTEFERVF
T2 sequence (O60563 whole entry partner): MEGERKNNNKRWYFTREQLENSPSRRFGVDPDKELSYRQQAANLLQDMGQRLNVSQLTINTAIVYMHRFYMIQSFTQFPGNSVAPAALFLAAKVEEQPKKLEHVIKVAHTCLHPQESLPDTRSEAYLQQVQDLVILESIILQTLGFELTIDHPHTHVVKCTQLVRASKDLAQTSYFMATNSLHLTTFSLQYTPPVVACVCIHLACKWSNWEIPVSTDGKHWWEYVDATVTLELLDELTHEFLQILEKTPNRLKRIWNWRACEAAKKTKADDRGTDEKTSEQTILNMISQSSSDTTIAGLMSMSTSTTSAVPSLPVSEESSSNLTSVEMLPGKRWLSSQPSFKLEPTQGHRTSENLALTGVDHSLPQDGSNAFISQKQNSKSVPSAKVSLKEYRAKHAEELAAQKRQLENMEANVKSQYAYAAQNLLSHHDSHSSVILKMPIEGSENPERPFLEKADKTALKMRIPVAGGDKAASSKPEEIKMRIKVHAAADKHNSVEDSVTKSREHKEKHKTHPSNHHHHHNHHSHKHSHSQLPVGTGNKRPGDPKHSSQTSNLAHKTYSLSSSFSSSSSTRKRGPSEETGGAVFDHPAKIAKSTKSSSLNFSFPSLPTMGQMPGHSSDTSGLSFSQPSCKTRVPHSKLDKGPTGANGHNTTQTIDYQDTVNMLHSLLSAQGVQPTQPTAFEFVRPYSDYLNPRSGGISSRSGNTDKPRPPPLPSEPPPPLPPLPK
Description: 1. CDK9/CycT1 Kinase Assay:
CDK9/CycT1-inhibitory activity of compounds of the present invention was quantified employing the CDK9/CycT1 TR-FRET assay as described in the following paragraphs:
Recombinant full-length His-tagged human CDK9 and CycT1, expressed in insect cells and purified by Ni-NTA affinity chromatography, were purchased from Invitrogen (Cat. No PV4131). As substrate for the kinase reaction biotinylated peptide biotin-Ttds-[…] (C-terminus in amid form) was used which can be purchased e.g. form the company JERINI Peptide Technologies (Berlin, Germany). For the assay 50 nl of a 100fold concentrated solution of the test compound in DMSO was pipetted into a black low volume 384well microtiter plate (Greiner Bio-One, Frickenhausen, Germany), 2 μl of a solution of CDK9/CycT1 in aqueous assay buffer [50 mM Tris/HCl pH 8.0, 10 mM MgCl2, 1.0 mM dithiothreitol, 0.1 mM sodium ortho-vanadate, 0.01% (v/v) Nonidet-P40 (Sigma)] were added and the mixture was incubated for 15 min at 22° C. to allow pre-binding of the test compounds to the enzyme before the start of the kinase reaction. Then the kinase reaction was started by the addition of 3 μl of a solution of adenosine-tri-phosphate (ATP, 16.7 μM=>final conc. in the 5 μl assay volume is 10 μM) and substrate (1.67 μM=>final conc. in the 5 μl assay volume is 1 μM) in assay buffer and the resulting mixture was incubated for a reaction time of 25 min at 22° C. The concentration of CDK9/CycT1 was adjusted depending of the activity of the enzyme lot and was chosen appropriate to have the assay in the linear range, typical concentrations were in the range of 1 μg/ml. The reaction was stopped by the addition of 5 μl of a solution of TR-FRET detection reagents (0.2 μM streptavidine-XL665 [Cisbio Bioassays, Codolet, France] and 1 nM anti-RB(pSer807/pSer811)-antibody from BD Pharmingen [#558389] and 1.2 nM LANCE EU-W1024 labeled anti-mouse IgG antibody [Perkin-Elmer, product no. AD0077]) in an aqueous EDTA-solution (100 mM EDTA, 0.2% (w/v) bovine serum albumin in 100 mM HEPES/NaOH pH 7.0).
as §1, with “HTRF” for “TR-FRET”

Row | Compound | IC50 [1] [nM] | IC50 (CDK2/CycE) [nM] | IC50 (CDK9/CycT1) [nM]
1 | CC(Oc1cc(F)ccc1-c1ncnc(Nc2cccc(CS(C)(=O)=O)c2)n1)c1ccccc1 (racemic) [Example 68, rac-4-[4-Fluoro-2-(1-phenylethoxy)phenyl]-N-{3-[(methylsulfonyl)methyl]phenyl}-1,3,5-triazin-2-amine] | 1400 | 1100 | 16
2 | COc1cnccc1-c1ncnc(Nc2cccc(CS(C)(=O)=O)c2)n1 [Example 8, 4-(3-Methoxypyridin-4-yl)-N-{3-[(methylsulfonyl)methyl]phenyl}-1,3,5-triazin-2-amine] | 1500 | 4700 | 37
3 | CS(=O)(=O)Cc1cccc(Nc2ncnc(-c3cccc4c3OCC4)n2)c1 [Example 13, 4-(2,3-Dihydro-1-benzofuran-7-yl)-N-{3-[(methylsulfonyl)methyl]phenyl}-1,3,5-triazin-2-amine] | 950 | 710 | 15
4 | COc1cc(F)ccc1-c1ncnc(Nc2cccc(CS(=O)(=O)CCO)c2)n1 [Example 14, 2-[(3-{[4-(4-Fluoro-2-methoxyphenyl)-1,3,5-triazin-2-yl]amino}benzyl)sulfonyl]ethanol] | 600 | 610 | 12
5 | [2H]C([2H])([2H])Oc1ccccc1-c1ncnc(Nc2cccc(CS(C)(=O)=O)c2)n1 [Example 22, 4-{2-[(^2H3)methyloxy]phenyl}-N-{3-[(methylsulfonyl)methyl]phenyl}-1,3,5-triazin-2-amine] | 1400 | 2500 | 23
6 | COCCS(=O)(=O)Cc1cccc(Nc2ncnc(-c3ccc(F)cc3OC)n2)c1 [Example 23, 4-(4-Fluoro-2-methoxyphenyl)-N-(3-{[(2-methoxyethyl)sulfonyl]methyl}phenyl)-1,3,5-triazin-2-amine] | 930 | 1300 | 12
7 | COc1cc(F)ccc1-c1ncnc(Nc2cccc(CS(=O)(=O)C(C)C)c2)n1 [Example 24, 4-(4-Fluoro-2-methoxyphenyl)-N-{3-[(propan-2-ylsulfonyl)methyl]phenyl}-1,3,5-triazin-2-amine] | 1000 | 680 | 7
8 | CS(=O)(=O)Cc1cccc(Nc2ncnc(-c3ccccc3OCc3ccc(F)cc3)n2)c1 [Example 25, 4-{2-[(4-Fluorobenzyl)oxy]phenyl}-N-{3-[(methylsulfonyl)methyl]phenyl}-1,3,5-triazin-2-amine] | 760 | 1100 | 7
9 | CC(C)S(=O)(=O)Cc1cccc(Nc2ncnc(-c3ccccc3OCc3cccc(Cl)c3)n2)c1 [Example 34, 4-{2-[(3-Chlorobenzyl)oxy]phenyl}-N-{3-[(propan-2-ylsulfonyl)methyl]phenyl}-1,3,5-triazin-2-amine] | 1200 | 800 | 10
10 | COc1cc(F)ccc1-c1ncnc(Nc2cccc(CS(=O)(=O)C3CCCC3)c2)n1 [Example 36, N-{3-[(Cyclopentylsulfonyl)methyl]phenyl}-4-(4-fluoro-2-methoxyphenyl)-1,3,5-triazin-2-amine] | 1000 | 880 | 17
11 | CC(C)S(=O)(=O)Cc1cccc(Nc2ncnc(-c3ccccc3OCc3ccc(F)cc3)n2)c1 [Example 37, 4-{2-[(4-Fluorobenzyl)oxy]phenyl}-N-{3-[(prop-2-ylsulfonyl)methyl]phenyl}-1,3,5-triazin-2-amine] | 1100 | 2500 | 9
12 | CC(C)S(=O)(=O)Cc1cccc(Nc2ncnc(-c3cc(F)ccc3OCc3cccc(F)c3)n2)c1 [Example 38, 4-{5-Fluoro-2-[(3-fluorobenzyl)oxy]phenyl}-N-{3-[(prop-2-ylsulfonyl)methyl]phenyl}-1,3,5-triazin-2-amine] | 840 | 320 | 6
13 | COc1cc(F)ccc1-c1ncnc(Nc2cc(Cl)cc(CS(C)(=O)=O)c2)n1 [Example 39, N-{5-Chloro-3-[(methylsulfonyl)methyl]phenyl}-4-(4-fluoro-2-methoxyphenyl)-1,3,5-triazin-2-amine] | 280 | 190 | 9
14 | CS(=O)(=O)Cc1cccc(Nc2ncnc(-c3ccc(F)cc3OC3CC3)n2)c1 [Example 41, 4-[2-(Cyclopropyloxy)-4-fluorophenyl]-N-{3-[(methylsulfonyl)methyl]phenyl}-1,3,5-triazin-2-amine] | 900 | 1000 | 29
15 | CS(=O)(=O)Cc1cccc(Nc2ncnc(-c3ccc(F)cc3OCc3cc(F)c(F)cc3F)n2)c1 [Example 75, 4-{4-Fluoro-2-[(2,4,5-trifluorobenzyl)oxy]phenyl}-N-{3-[(methylsulfonyl)-methyl]phenyl}-1,3,5-triazin-2-amine] | 1100 |  | 6
16 | CS(=O)(=O)Cc1cccc(Nc2ncnc(-c3ccc(F)cc3OCc3cc(F)cc(C(F)(F)F)c3)n2)c1 [Example 78, 4-(4-Fluoro-2-{[3-fluoro-5-(trifluoromethyl)benzyl]oxy}phenyl)-N-{3-[(methylsulfonyl)-methyl]-phenyl}-1,3,5-triazin-2-amine] | 950 |  | 4
17 | CS(=O)(=O)Cc1cccc(Nc2ncnc(-c3ccc(F)cc3OCc3cc(F)ccc3F)n2)c1 [Example 81, 4-{2-[(2,5-Difluorobenzyl)-oxy]-4-fluorophenyl}-N-{3-[(methylsulfonyl)methyl]phenyl}-1,3,5-triazin-2-amine] | 820 |  | 5
18 | CS(=O)(=O)Cc1cccc(Nc2ncnc(-c3ccc(F)cc3OCc3ccnc(F)c3)n2)c1 [Example 82, 4-{4-Fluoro-2-[(2-fluoropyridin-4-yl)methoxy]-phenyl}-N-{3-[(methylsulfonyl)-methyl]-phenyl}-1,3,5-triazin-2-amine] |  | 75 | 1
